Measured values: patent US9321757B2, “Heterocyclic compound” (Takeda Pharmaceutical Company Limited, priority 2013, dated 2016)

Biological target: T1, IRAK-4 (Homo sapiens, UniProt Q9NWZ3)
T1 construct: purchased Carna Biosciences, Inc
T1 sequence (Q9NWZ3 1-460): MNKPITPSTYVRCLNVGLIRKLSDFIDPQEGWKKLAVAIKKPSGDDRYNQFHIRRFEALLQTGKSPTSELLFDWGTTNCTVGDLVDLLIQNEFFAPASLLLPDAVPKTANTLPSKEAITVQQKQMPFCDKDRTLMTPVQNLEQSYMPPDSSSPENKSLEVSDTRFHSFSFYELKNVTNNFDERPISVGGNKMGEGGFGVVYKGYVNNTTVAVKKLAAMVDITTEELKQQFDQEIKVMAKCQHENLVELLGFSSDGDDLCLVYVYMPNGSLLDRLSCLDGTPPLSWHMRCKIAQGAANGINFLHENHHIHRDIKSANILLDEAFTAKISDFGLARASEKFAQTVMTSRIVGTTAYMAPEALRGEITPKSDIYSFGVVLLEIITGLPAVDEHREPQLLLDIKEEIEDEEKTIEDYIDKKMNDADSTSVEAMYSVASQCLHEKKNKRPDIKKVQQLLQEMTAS
Experiment: IRAK-4 Enzyme Inhibition Test (LANCE method)
Format: biochemical
Conditions: compound concentration 1 μM, well without enzyme = 100% inhibition; for inhibition at 1 µM: read-out: IRAK4 enzyme inhibitory rate (%) at 1 μM
Protocol: IRAK-4 enzyme inhibitory activities of test compounds were measured by LANCE method (PerkinElmer). First, a test compound diluted with assay buffer (50 mM HEPES (pH7.5), 10 mM MgCl2, 1 mM EGTA, 2 mM DTT, 0.01% Tween 20, 0.01% BSA) was added to 384-well plate at 2 μL each. Then, IRAK-4 (Carna Biosciences, Inc.) and a fluorescence-labeled peptide substrate (ULight-ACC peptide, PerkinElmer) solution diluted with assay buffer at 240 ng/mL and 37.5 nM, respectively were added at 2 μL each. Then, enzyme reaction was started by adding 2 μL each of ATP solution prepared with assay buffer at 1.5 mM. After the reaction at room temperature for 1 hr, Detection Buffer (PerkinElmer) prepared to be 20 mM EDTA, 1 nM europium-labeled anti-phospho ACC antibody (PerkinElmer) was added at 6 μL each. After standing at room temperature for 1 hr, fluorescence intensity (excitation wavelength 340 nm, fluorescence wavelength 665 nm, delay time 100 microseconds) was measured by a plate reader, Envision (PerkinElmer). The inhibitory activity of each compound was calculated as relative value where fluorescence intensity of a well without enzyme is considered as 100% inhibition.

For Cn1cc(NC(=O)c2coc(-c3ccnc(NCC(F)(F)F)c3)n2)c(N2C[C@@H](O)CC2=O)n1 [Example 1, N-(3-((4S)-4-hydroxy-2-oxopyrrolidin-1-yl)-1-methyl-1H-pyrazol-4-yl)-2-(2-((2,2,2-trifluoroethyl)amino)pyridin-4-yl)-1,3-oxazole-4-carboxamide], which inhibition at 1 µM is on record?
Its inhibition at 1 µM is 98%.

With CC1CCN(c2nn(C)cc2NC(=O)c2coc(-c3ccnc(NCC(F)(F)F)c3)n2)C1=O (stereo not shown) [Example 2, N-(1-methyl-3-(3-methyl-2-oxopyrrolidin-1-yl)-1H-pyrazol-4-yl)-2-(2-((2,2,2-trifluoroethyl)amino)pyridin-4-yl)-1,3-oxazole-4-carboxamide] as the compound, how does the inhibition at 1 µM read?
The inhibition at 1 µM was 98%.

For CN(C)CC1CC(=O)N(c2nn(C)cc2NC(=O)c2coc(-c3ccnc(NCC(F)(F)F)c3)n2)C1 (stereo not shown) [Example 3, N-(3-(4-((dimethylamino)methyl)-2-oxopyrrolidin-1-yl)-1-methyl-1H-pyrazol-4-yl)-2-(2-((2,2,2-trifluoroethyl)amino)pyridin-4-yl)-1,3-oxazole-4-carboxamide], which inhibition at 1 µM is on record?
The inhibition at 1 µM was 100%.

How did the inhibition at 1 µM turn out when Cn1cc(NC(=O)c2coc(-c3ccnc(NCC(F)(F)F)c3)n2)c(N2CCC(C)(C)C2=O)n1 [Example 13, N-(3-(3,3-dimethyl-2-oxopyrrolidin-1-yl)-1-methyl-1H-pyrazol-4-yl)-2-(2-((2,2,2-trifluoroethyl)amino)pyridin-4-yl)-1,3-oxazole-4-carboxamide] was run?
The inhibition at 1 µM was 98%.

How did the inhibition at 1 µM turn out when CN(C)[C@H]1CC(=O)N(c2nn(C)cc2NC(=O)c2coc(-c3ccnc(NCC(F)(F)F)c3)n2)C1 [Example 16, N-(3-((4S)-4-(dimethylamino)-2-oxopyrrolidin-1-yl)-1-methyl-1H-pyrazol-4-yl)-2-(2-((2,2,2-trifluoroethyl)amino)pyridin-4-yl)-1,3-oxazole-4-carboxamide] was run?
The inhibition at 1 µM was 98%.

C[C@H]1C(O)C(C)(C)C(=O)N1c1nn(C)cc1NC(=O)c1coc(-c2ccnc(NCC(F)(F)F)c2)n1 (stereo partly drawn) [Example 17, N-(3-((5S)-4-hydroxy-3,3,5-trimethyl-2-oxopyrrolidin-1-yl)-1-methyl-1H-pyrazol-4-yl)-2-(2-((2,2,2-trifluoroethyl)amino)pyridin-4-yl)-1,3-oxazole-4-carboxamide] was tested. Which inhibition at 1 µM did it give?
Its inhibition at 1 µM is 77%.

Which inhibition at 1 µM does the source give for Cc1cccc(C(=O)Nc2cn(C)nc2N2CCC(C)(C)C2=O)n1 [Example 36, N-(3-(3,3-dimethyl-2-oxopyrrolidin-1-yl)-1-methyl-1H-pyrazol-4-yl)-6-methylpyridine-2-carboxamide] here?
The inhibition at 1 µM was 36%.

For Cn1cc(NC(=O)c2ccn(C(F)F)n2)c(N2CCC(C)(C)C2=O)n1 [Example 40, 1-(difluoromethyl)-N-(3-(3,3-dimethyl-2-oxopyrrolidin-1-yl)-1-methyl-1H-pyrazol-4-yl)-1H-pyrazole-3-carboxamide], which inhibition at 1 µM is on record?
The inhibition at 1 µM was 56%.

For Cc1cccc(C(=O)Nc2cn(C)nc2N2CCC(C)(C)C2=O)c1 [Example 46, N-(3-(3,3-dimethyl-2-oxopyrrolidin-1-yl)-1-methyl-1H-pyrazol-4-yl)-3-methylbenzamide], which inhibition at 1 µM is on record?
Its inhibition at 1 µM is 30%.

How did the inhibition at 1 µM turn out when CN1CCN(c2nn(C)cc2NC(=O)c2coc(-c3ccnc(NCC(F)(F)F)c3)n2)C1=O [Example 48, N-(1-methyl-3-(3-methyl-2-oxoimidazolidin-1-yl)-1H-pyrazol-4-yl)-2-(2-((2,2,2-trifluoroethyl)amino)pyridin-4-yl)-1,3-oxazole-4-carboxamide] was run?
Its inhibition at 1 µM is 99%.

Which inhibition at 1 µM does the source give for Cn1cc(NC(=O)c2coc(-c3ccnc(NCC(F)(F)F)c3)n2)c(N2CCOC2=O)n1 [Example 55, N-(1-methyl-3-(2-oxo-1,3-oxazolidin-3-yl)-1H-pyrazol-4-yl)-2-(2-((2,2,2-trifluoroethyl)amino)pyridin-4-yl)-1,3-oxazole-4-carboxamide] here?
The inhibition at 1 µM was 99%.

With Cn1cc(NC(=O)c2coc(-c3ccnc(NCC4CC4)c3)n2)c(N2CCN(CCO)C2=O)n1 [Example 59, 2-(2-((cyclopropylmethyl)amino)pyridin-4-yl)-N-(3-(3-(2-hydroxyethyl)-2-oxoimidazolidin-1-yl)-1-methyl-1H-pyrazol-4-yl)-1,3-oxazole-4-carboxamide] as the compound, how does the inhibition at 1 µM read?
The inhibition at 1 µM was 100%.

Which inhibition at 1 µM does the source give for Cn1cc(NC(=O)c2coc(-c3ccnc(NCC(F)F)c3)n2)c(N2CCN(CCO)C2=O)n1 [Example 60, 2-(2-((2,2-difluoroethyl)amino)pyridin-4-yl)-N-(3-(3-(2-hydroxyethyl)-2-oxoimidazolidin-1-yl)-1-methyl-1H-pyrazol-4-yl)-1,3-oxazole-4-carboxamide] here?
Its inhibition at 1 µM is 99%.

CN(C)CC1CN(c2nn(C)cc2NC(=O)c2coc(-c3ccnc(NCC(F)(F)F)c3)n2)C(=O)C1(C)C (stereo not shown) [Example 61, N-(3-(4-((dimethylamino)methyl)-3,3-dimethyl-2-oxopyrrolidin-1-yl)-1-methyl-1H-pyrazol-4-yl)-2-(2-((2,2,2-trifluoroethyl)amino)pyridin-4-yl)-1,3-oxazole-4-carboxamide] was tested. Which inhibition at 1 µM did it give?
The inhibition at 1 µM was 100%.

How did the “IRAK4 enzyme inhibitory rate (%) at 1 μM” value turn out when CN(C)CC1CN(c2nn(C)cc2NC(=O)c2coc(-c3ccnc(NCC(F)(F)F)c3)n2)C(=O)C1(C)C (stereo not shown) [Example 62, N-(3-(4-((dimethylamino)methyl)-3,3-dimethyl-2-oxopyrrolidin-1-yl)-1-methyl-1H-pyrazol-4-yl)-2-(2-((2,2,2-trifluoroethyl)amino)pyridin-4-yl)-1,3-oxazole-4-carboxamide] was run?
Its value is 100%.

C[C@H]1CCN(c2nn(C)cc2NC(=O)c2coc(-c3ccnc(NCC(F)(F)F)c3)n2)C1=O [Example 77, N-(1-methyl-3-((3S)-3-methyl-2-oxopyrrolidin-1-yl)-1H-pyrazol-4-yl)-2-(2-((2,2,2-trifluoroethyl)amino)pyridin-4-yl)-1,3-oxazole-4-carboxamide] was tested. Which inhibition at 1 µM did it give?
The inhibition at 1 µM was 99%.

For Cn1cc(NC(=O)c2coc(-c3ccnc(NCC(F)(F)F)c3)n2)c(N2CC(CO)C(C)(C)C2=O)n1 (stereo not shown) [Example 101, N-(3-(4-(hydroxymethyl)-3,3-dimethyl-2-oxopyrrolidin-1-yl)-1-methyl-1H-pyrazol-4-yl)-2-(2-((2,2,2-2-trifluoroethyl)amino)pyridin-4-yl)-1,3-oxazole-4-carboxamide], which inhibition at 1 µM is on record?
Its inhibition at 1 µM is 99%.

With CNCC1CN(c2nn(C)cc2NC(=O)c2coc(-c3ccnc(NCC(F)(F)F)c3)n2)C(=O)N1C (stereo not shown) [Example 110, N-(1-methyl-3-(3-methyl-4-((methylamino)methyl)-2-oxoimidazolidin-1-yl)-1H-pyrazol-4-yl)-2-(2-((2,2,2-trifluoroethyl)amino)pyridin-4-yl)-1,3-oxazole-4-carboxamide] as the compound, how does the inhibition at 1 µM read?
The inhibition at 1 µM was 98%.

How did the inhibition at 1 µM turn out when CC(O)CN1CCN(c2nn(C)cc2NC(=O)c2coc(-c3ccnc(NCC(F)(F)F)c3)n2)C1=O (stereo not shown) [Example 164, N-(3-(3-(2-hydroxypropyl)-2-oxoimidazolidin-1-yl)-1-methyl-1H-pyrazol-4-yl)-2-(2-((2,2,2-trifluoroethyl)amino)pyridin-4-yl)-1,3-oxazole-4-carboxamide] was run?
Its inhibition at 1 µM is 98%.

With Cn1cc(NC(=O)c2cccc(N3C[C@@H](CN)NC3=O)n2)c(N2CCC(C)(C)C2=O)n1 [Example 199, 6-((4R)-4-(aminomethyl)-2-oxoimidazolidin-1-yl)-N-(3-(3,3-dimethyl-2-oxopyrrolidin-1-yl)-1-methyl-1H-pyrazol-4-yl)pyridine-2-carboxamide] as the compound, how does the inhibition at 1 µM read?
The inhibition at 1 µM was 99%.

With Cn1cc(NC(=O)c2cccc(N3CC4(CCNC4)NC3=O)n2)c(N2CCC(C)(C)C2=O)n1 (stereo not shown) [Example 206, N-(3-(3,3-dimethyl-2-oxopyrrolidin-1-yl)-1-methyl-1H-pyrazol-4-yl)-6-(2-oxo-1,3,7-triazaspiro[4.4]non-3-yl)pyridine-2-carboxamide] as the compound, how does the inhibition at 1 µM read?
The inhibition at 1 µM was 100%.

CN1CCN(c2nn(C)cc2NC(=O)c2cccc(N3CC4(CCNC4)NC3=O)n2)C1=O (stereo not shown) [Example 215, N-(1-methyl-3-(3-methyl-2-oxoimidazolidin-1-yl)-1H-pyrazol-4-yl)-6-(2-oxo-1,3,7-triazaspiro[4.4]non-3-yl)pyridine-2-carboxamide] was tested. Which inhibition at 1 µM did it give?
The inhibition at 1 µM was 100%.
